According to ChEMBL document CHEMBL1146428, “Effects of flavonoids isolated from scutellariae radix on fibrinolytic system induced by trypsin in human umbilical vein endothelial cells” (J Nat Prod, 1997):
The source made the active and inactive calls. The rule behind the calls is not given here.

What was measured:
Trypsin [1] = target: T1, Trypsin (Homo sapiens, UniProt P07477+P07478+P35030); assay: Inhibition of trypsin-induced reduction in tPA production in HUVEC by ELISA; format: cell-based
Trypsin [2] = target: T1, Trypsin; assay: Inhibition of trypsin-induced elevation in PAI1 production in HUVEC by ELISA; format: cell-based
[3] = Inhibition of trypsin by protease assay system

Row | SMILES | Activity (Trypsin [1]) | IC50 (Trypsin [2]) [µM] | IC50 [3] [µM] | Activity (Trypsin [2])
1 | COc1c(O[C@@H]2O[C@H](C(=O)O)[C@@H](O)[C@H](O)[C@H]2O)cc(O)c2c(=O)cc(-c3ccccc3)oc12 | inactive | > 1000 | – | –
2 | O=C1C[C@@H](c2c(O)cccc2O)Oc2cc(O)cc(O)c21 | inactive | > 1000 | – | –
3 | COc1c(O)ccc(O)c1-c1cc(=O)c2c(O)cc(O)c(OC)c2o1 | inactive | 88 | – | –
4 | O=c1cc(-c2ccccc2)oc2cc(O)c(O)c(O)c12 [BAICALEIN] | Dose-dependent effect | 3.7 | 0.5 | Dose-dependent effect
5 | O=C(O)[C@H]1O[C@@H](Oc2cc3oc(-c4ccccc4)cc(=O)c3c(O)c2O)[C@H](O)[C@@H](O)[C@@H]1O [BAICALIN] | inactive | > 1000 | – | –
6 | COc1c(O)cc2oc(-c3ccccc3)cc(=O)c2c1O [OROXYLIN A] | inactive | 61 | – | –
7 | COc1cccc(O)c1-c1cc(=O)c2c(O)c(OC)c(OC)c(OC)c2o1 [SKULLCAPFLAVONE II] | inactive | 110 | – | –
8 | COc1c(O)cc(O)c2c(=O)cc(-c3ccccc3)oc12 [WOGONIN] | inactive | 105 | – | –
